Experimental data reported in US20220280581A1, “BENEFICIAL BACTERIA AND SECRETORY IMMUNOGLOBULIN A” (priority 2019, published 2022).

Assays:
[1] = Protection from simulated gastric digestion in vitro (pepsin, pancreatin): viability by CFU plating and live/dead flow cytometry; details: for slope of regression plot of viability with SIgA association: post-digestion; for Slope (CFU/% SIgA): regression of viable CFU post-digestion on SIgA association
Description: (§1) Flow cytometry and immunofluorescence: To measure binding cells were fixed using 4% w/v paraformaldehyde for 30 min, washed with PBS, then incubated with 1% bovine serum albumin (BSA) blocking buffer for 1 h. Cells were stained with 1/100 dilution SYTOT™ 9 (S34854, ThermoFisher) for live cells and goat anti-human IgA conjugated to Alexa 647 fluorophore using 1/50 dilution in 1% BSA (ab96998, Abcam). For flow cytometry, all samples were acquired and analyzed on a FACScan flow cytometer (BD Biosciences, Mountain View, Calif.) using the CellQuest software program. For live/dead analyses following in vitro digestion, cells were stained with SYTOT™ 9 (1/100 dilution) for live cells and propidium iodine (1/1000 dilution) for dead cells or cells with compromised membranes.
Protection from digestion using an in vitro model. To determine the extent to which the SIgA-glycan-mediated-bacterial complexes that included the Ig-bound secretory component (SC) where able to protect bacteria and SIgA from proteolytic degradation, an in vitro model was used. Simulated gastric digestion was performed by resuspending bacteria in 200 ul of 0.1% porcine pepsin (Sigma—Aldrich, St. Louis, Mo.) in PBS at pH 4. Samples were placed in an incubating shaker (New Brunswick Scientific, Edison, N.J.) at 140 rpm at 37° C. for 15 min. Cells were then pelleted and resuspended in 200 ul of 0.04% pancreatin (Sigma— Aldrich) in PBS pH 7, and the samples placed in the incubator shaker at 140 rpm at 37° C. for 5 min. Bacteria were pelleted and washed twice with PBS to remove residual enzymes, then evaluated for viability through CFU serial dilution and spot plating, and with live/dead flow cytometry analysis.

[2] = BLI persistence / colonization in mice (feces); assay type: in vivo, BALBc mice
Description: Mice: 6-week old female BALBc mice were purchased from The Jackson Labs. Mice were housed in an American Association for the Accreditation of Laboratory Animal Care-accredited facility, and procedures were conducted in compliance with the University of California Institutional Animal Care and Use Committee. Mice were co-housed 5 mice per cage in the Training and Research Animal Care Services vivarium at the University of California, Davis under conventional conditions with free access to standard chow RM1P (801151, Special Diet Services, Witham, England) and sterilized tap water with or without 2′FL. Mice were acclimated for 1 week prior to treatment. Mice were euthanized by decapitation following deep anesthesia with 100 mg/kg ketamine and 10 mg/kg xylazine administered by intraperitoneal injection.
Tissue Collection: Fecal samples were collected aseptically every 2 days for BLI detection. During necropsy, segments of duodenum, ileum, and colon were sectioned. First, Peyer's patches (PP) were collected and stored in 200 μL PBS in bead-beating tubes for homogenization and plating on blue/white screening agar. Duodenum, ileum, colon and cecum contents were collected into sterile tubes for bacterial analysis.
Bacterial plating and counting: PP, luminal contents and fecal samples were subjected to bead beating for 60 s at 4 m/s using a FastPrep homogenizer and 2 mm zirconium ceramic beads. Homogenate was serially diluted and plated on LB agar with kanamycin, x-gal and IPTG (blue-white screening agar) for differentiating JS107 and SJF10 strains, or further processed for DNA extraction and RT-qPCR for quantitation of BLI. […]
Strain-Specific qPCR: BLI was detected in fecal samples and intestinal contents following DNA extraction as described in Frese et al.^15 using the following primers: BLON0915F 5′[…]3′ and BLON0915R 5′ […]3′. […]

Sal4 = test: BLI-Sal4 association: concentration dependence and stability; assay type: binding; details: FIG. 6, BLI-Sal4
pooled human milk SIgA [3] = test: Binding of SIgA to bacteria by flow cytometry
Description: Binding of sIgA to bacteria. Bacteria from Table 1 were resuspended in 0.8% saline at a concentration of 1×10^7 CFU/mL. SIgA was then added at 0, 10, 100, 500 and 1000 μg per 1×10^7 colony forming units (CFU) of bacteria and incubated at 24° C. for 30 min. Following incubation, bacteria were pelleted at 14000×g for 4 min and washed with saline twice to remove non-adherent SIgA.
as §1

pooled human milk SIgA [4] = test: Binding of SIgA to bacteria by flow cytometry; details: 100 μg SIgA to 1e6 cfu bacteria

## Bifidobacterium longum ssp. infantis ATCC 15697
[1]; grown on LNnT, 1000 μg SIgA/1e7 CFU
  viable bacteria post-digestion: 1.3e5 CFU
[1]; grown on LNnT, no SIgA
  viable bacteria post-digestion: 1.2e4 CFU
[1]; grown on glucose, 1000 μg SIgA/1e7 CFU
  viable bacteria post-digestion: 8.9e5 CFU
[1]; grown on glucose, no SIgA
  viable bacteria post-digestion: 1e5 CFU
[1]; grown on LNnT
  slope of regression plot of viability with SIgA association: 1.2e3 CFU per % population SIgA association
[1]; grown on glucose
  slope of regression plot of viability with SIgA association: 8.2e4 CFU per % population SIgA association
[1]; substrate 2′FL
  Slope (CFU/% SIgA): 410.1 CFU/% SIgA
[1]; substrate LNnT
  Slope (CFU/% SIgA): 1214 CFU/% SIgA
[1]; substrate glucose
  Slope (CFU/% SIgA): 8970 CFU/% SIgA
[1]; substrate lactose
  Slope (CFU/% SIgA): 76377 CFU/% SIgA
[2]; 5-6 week old BALBc mice fed water
  increase of colonization in the gastrointestinal tract with SIgA association: 4 log-scale
[2]; mice supplemented with an HMO (10% 2′ fucosyllactose)
  increase of colonization in the gastrointestinal tract with SIgA association: 5 log-scale
[2]; one day post oral administration, vs not pre-incubated
  higher concentration in feces when pre-incubated with milk SIgA: 10 ×
Sal4
  SIgA association with BLI: concentration dependence: concentration dependent
Sal4; 6 hour
  SIgA association with BLI: stability over time: stable over a 6 hour time interval
Pooled human milk SIgA [3]; 0-1000 μg SIgA per 1e7 CFU
  binding of a heterogeneous pool of SIgA: concentration dependent
Pooled human milk SIgA [3]; 1% 2′FL in the final media
  association to SIgA when first grown on 2′FL: increased association to SIgA
Pooled human milk SIgA [4]
  ability to bind to pooled human milk SIgA: 92.4%
Pooled human milk SIgA [4]; HMO-grown
  increase in SIgA binding when first grown on an HMO substrate: 4.8%
